Laboratory results from ChEMBL document CHEMBL1157907, “Synthesis and anti-tumor activities of methyl 2-O-aryl-6-O-aryl'-D-glucopyranosides” (Bioorg Med Chem Lett, 2010).

Tests used:
MDA-MB-231 [1] = assay: Cytotoxicity against human MDA-MB-231 cells after 48 hrs by MTT assay; format: functional, cell-based; settings: MDA-MB-231, 48 h
A549 [2] = assay: Cytotoxicity against human A549 cells after 48 hrs by MTT assay; format: functional, cell-based; settings: A549, 48 h
HeLa [3] = assay: Cytotoxicity against human HeLa cells after 48 hrs by MTT assay; format: functional, cell-based
MDA-MB-231 [4] = assay: Drug uptake in human MDA-MB-231 cells at 10 uM; format: ADME, cell-based; settings: mda-mb-231, 10 µM
MDA-MB-231 [5] = assay: Cytotoxicity against human MDA-MB-231 cells at 20 uM after 48 hrs by MTT assay; format: functional; settings: MDA-MB-231, 48 h
MDA-MB-435 [6] = assay: Cytotoxicity against human MDA-MB-435 cells at 20 uM after 48 hrs by MTT assay; format: functional; settings: MDA-MB-435, 48 h
MCF7 [7] = assay: Cytotoxicity against human MCF7 cells at 20 uM after 48 hrs by MTT assay; format: functional; settings: MCF7, 48 h
A549 [8] = assay: Cytotoxicity against human A549 cells up to 50 uM after 48 hrs by MTT assay; format: functional, cell-based
MDA-MB-231 [9] = assay: Cytotoxicity against human MDA-MB-231 cells up to 50 uM after 48 hrs by MTT assay; format: functional, cell-based
HeLa [10] = assay: Cytotoxicity against human HeLa cells up to 50 uM after 48 hrs by MTT assay; format: functional, cell-based
MDA-MB-435 [11] = assay: Cytotoxicity against human MDA-MB-435 cells after 48 hrs by MTT assay; format: functional, cell-based; settings: MDA-MB-435, 48 h
MCF7 [12] = assay: Cytotoxicity against human MCF7 cells after 48 hrs by MTT assay; format: functional, cell-based; settings: MCF7, 48 h

Row | Structure (SMILES) | EC50 (MDA-MB-231 [1]) [µM] | EC50 (A549 [2]) [µM] | EC50 (HeLa [3]) [µM] | inhibition at 20 µM (MDA-MB-231 [5]) [%] | inhibition at 20 µM (MDA-MB-435 [6]) [%] | inhibition at 20 µM (MCF7 [7]) [%] | other results
1 | CO[C@H]1O[C@H](COc2ccc(C3CCCCC3)cc2)[C@@H](O)[C@H](O)[C@H]1Oc1ccc(OC2CCCCC2)cc1 | 14 | 12 | 10 |  |  |  | Drug uptake (MDA-MB-231 [4]): Not Active
2 | CO[C@H]1O[C@H](COc2ccccc2)[C@@H](O)[C@H](O)[C@H]1Oc1ccc(OC2CCCCC2)cc1 |  |  |  | -11 | -8 | -9 | 
3 | CO[C@@H]1O[C@H](COc2ccc(OC3CCCCC3)cc2)[C@@H](O)[C@H](O)[C@H]1Oc1ccc(C(C)C)cc1 | 35 | 32 | 26 |  |  |  | 
4 | CO[C@H]1O[C@H](COc2ccc(C3CCCCC3)cc2)[C@@H](O)[C@H](O)[C@H]1Oc1ccc2c(c1)CCCC2 | 25 | 17 | 29 |  |  |  | 
5 | CO[C@H]1O[C@H](COc2ccc(C3CCCCC3)cc2)[C@@H](OC)[C@H](OC)[C@H]1Oc1ccc(OC2CCCCC2)cc1 |  |  |  |  |  |  | EC50 (A549 [8]): Not Active; EC50 (MDA-MB-231 [9]): Not Active; EC50 (HeLa [10]): Not Active
6 | CO[C@H]1O[C@H](COc2ccc3c(c2)CCCC3)[C@@H](O)[C@H](O)[C@H]1Oc1cccc(C(C)C)c1 |  | 40 | 33 |  |  |  | EC50 (A549 [8]): Not Active
7 | CO[C@@H]1O[C@H](COc2ccc3c(c2)CCCC3)[C@@H](O)[C@H](O)[C@H]1Oc1ccc(OC2CCCCC2)cc1 |  |  |  | 0 | 1 | 14 | 
8 | CO[C@H]1O[C@H](COc2ccc(-c3ccccc3)cc2)[C@@H](O)[C@H](O)[C@H]1Oc1ccc(C(C)C)cc1 | 31 | 32 | 19 |  |  |  | 
9 | CO[C@H]1O[C@H](COc2ccc(-c3ccccc3)cc2)[C@@H](O)[C@H](O)[C@H]1Oc1ccccc1 |  | 36 | 33 |  |  |  | EC50 (A549 [8]): Not Active
10 | CO[C@@H]1O[C@H](COc2ccc(OC3CCCCC3)cc2)[C@@H](O)[C@H](O)[C@H]1Oc1ccc(OC2CCCCC2)cc1 | 26 | 25 | 14 |  |  |  | 
11 | CO[C@@H]1O[C@H](COc2cccc(C(C)C)c2)[C@@H](O)[C@H](O)[C@H]1Oc1ccc(OC2CCCCC2)cc1 | 40 | 41 | 39 |  |  |  | 
12 | CO[C@@H]1O[C@H](COc2ccc3c(c2)CCCC3)[C@@H](O)[C@H](O)[C@H]1Oc1ccc2c(c1)-c1ccccc1S2(=O)=O |  |  |  | 14 | -4 | 7 | 
13 | CO[C@@H]1O[C@H](COc2ccccc2)[C@@H](O)[C@H](O)[C@H]1Oc1ccc2c(c1)-c1ccccc1S2(=O)=O |  |  |  | -16 | 0 | 7 | 
14 | CO[C@@H]1O[C@H](COc2ccccc2)[C@@H](O)[C@H](O)[C@H]1Oc1ccc(OC2CCCCC2)cc1 |  |  |  | -9 | 14 | -5 | 
15 | C=CCO[C@@H]1[C@@H](Oc2ccc(OC3CCCCC3)cc2)[C@@H](OC)O[C@H](COc2ccc(C3CCCCC3)cc2)[C@H]1OCC=C |  |  |  |  |  |  | EC50 (A549 [8]): Not Active; EC50 (MDA-MB-231 [9]): Not Active; EC50 (HeLa [10]): Not Active
16 | COc1ccc(OC[C@H]2O[C@@H](OC)[C@H](Oc3ccc(OC4CCCCC4)cc3)[C@@H](O)[C@@H]2O)cc1OC |  |  |  |  |  |  | EC50 (A549 [8]): Not Active; EC50 (MDA-MB-231 [9]): Not Active; EC50 (HeLa [10]): Not Active
17 | CO[C@@H]1O[C@H](COc2ccccc2C(C)C)[C@@H](O)[C@H](O)[C@H]1Oc1ccc(OC2CCCCC2)cc1 | 44 | 41 | 42 |  |  |  | 
18 | CO[C@H]1O[C@H](COc2ccc(-c3ccccc3)cc2)[C@@H](O)[C@H](O)[C@H]1Oc1ccc2c(c1)-c1ccccc1S2(=O)=O |  |  |  | 29 | 12 | 15 | 

Row | Structure (SMILES) | EC50 (MDA-MB-231 [1]) [µM] | EC50 (A549 [2]) [µM] | EC50 (HeLa [3]) [µM] | inhibition at 20 µM (MDA-MB-231 [5]) [%] | inhibition at 20 µM (MDA-MB-435 [6]) [%] | inhibition at 20 µM (MCF7 [7]) [%] | other results
19 | CO[C@H]1O[C@H](COc2cccc3c2CCCC3)[C@@H](O)[C@H](O)[C@H]1Oc1ccc2c(c1)-c1ccccc1S2(=O)=O |  |  |  | -8 | -5 | 4 | 
20 | CO[C@H]1O[C@H](COc2ccc3c(c2)CCCC3)[C@@H](O)[C@H](O)[C@H]1Oc1ccc2c(c1)-c1ccccc1S2(=O)=O |  |  |  | 30 | 17 | 2 | 
21 | CO[C@H]1O[C@H](COc2ccc(C3CCCCC3)cc2)[C@@H](OCc2ccccc2)[C@H](OCc2ccccc2)[C@H]1Oc1ccc(OC2CCCCC2)cc1 |  |  |  |  |  |  | EC50 (A549 [8]): Not Active; EC50 (MDA-MB-231 [9]): Not Active; EC50 (HeLa [10]): Not Active
22 | COc1cc(OC)cc(OC[C@H]2O[C@H](OC)[C@H](Oc3ccc(OC4CCCCC4)cc3)[C@@H](O)[C@@H]2O)c1 |  |  |  |  |  |  | EC50 (A549 [8]): Not Active; EC50 (MDA-MB-231 [9]): Not Active; EC50 (HeLa [10]): Not Active
23 | CO[C@H]1O[C@H](COc2ccccc2C(C)C)[C@@H](O)[C@H](O)[C@H]1Oc1ccc(OC2CCCCC2)cc1 | 36 | 33 | 47 |  |  |  | 
24 | CO[C@H]1O[C@H](COc2ccccc2)[C@@H](O)[C@H](O)[C@H]1Oc1ccc2c(c1)-c1ccccc1S2(=O)=O |  |  |  | 2 | 4 | 7 | 
25 | CO[C@H]1O[C@H](COc2ccc3c(c2)CCCC3)[C@@H](O)[C@H](O)[C@H]1Oc1ccc(OC2CCCCC2)cc1 | 20 |  |  | 24 | 16 | 45 | EC50 (MDA-MB-435 [11]): 26 µM; EC50 (MCF7 [12]): 17 µM
26 | CO[C@H]1O[C@H](COc2cccc3c2CCCC3)[C@@H](O)[C@H](O)[C@H]1Oc1ccc(OC2CCCCC2)cc1 |  |  |  | -8 | -1 | 3 | 
27 | CO[C@H]1O[C@H](COc2ccc(OC3CCCCC3)cc2)[C@@H](O)[C@H](O)[C@H]1Oc1ccc(OC2CCCCC2)cc1 | 20 | 18 | 14 |  |  |  | 
28 | CO[C@H]1O[C@H](COc2ccc(-c3ccccc3)cc2)[C@@H](O)[C@H](O)[C@H]1Oc1cccc(C(C)C)c1 | 30 | 32 | 35 |  |  |  | 
29 | CO[C@@H]1O[C@H](COc2ccc(-c3ccccc3)cc2)[C@@H](O)[C@H](O)[C@H]1Oc1cccc(C(C)C)c1 | 35 | 35 | 32 |  |  |  | 
30 | CO[C@@H]1O[C@H](COc2ccc3c(c2)CCCC3)[C@@H](O)[C@H](O)[C@H]1Oc1cccc(C(C)C)c1 |  |  |  |  |  |  | EC50 (A549 [8]): Not Active; EC50 (MDA-MB-231 [9]): Not Active; EC50 (HeLa [10]): Not Active
31 | CO[C@H]1O[C@H](COc2ccc(OC3CCCCC3)cc2)[C@@H](O)[C@H](O)[C@H]1Oc1ccc(C(C)C)cc1 | 25 | 27 | 18 |  |  |  | 
32 | COc1ccc(OC[C@H]2O[C@H](OC)[C@H](Oc3ccc(OC4CCCCC4)cc3)[C@@H](O)[C@@H]2O)cc1OC |  |  |  |  |  |  | EC50 (A549 [8]): Not Active; EC50 (MDA-MB-231 [9]): Not Active; EC50 (HeLa [10]): Not Active
33 | CO[C@@H]1O[C@H](COc2ccc(-c3ccccc3)cc2)[C@@H](O)[C@H](O)[C@H]1Oc1ccc(OC2CCCCC2)cc1 | 36 |  |  | 64 | 30 | 51 | EC50 (MDA-MB-435 [11]): 26 µM; EC50 (MCF7 [12]): 18 µM
34 | CO[C@H]1O[C@H](COc2ccc(-c3ccccc3)cc2)[C@@H](O)[C@H](O)[C@H]1Oc1ccccc1C(C)C | 34 | 33 | 29 |  |  |  | 
35 | CO[C@H]1O[C@H](COc2ccc(C3CCCCC3)cc2)[C@@H](O)[C@H](O)[C@H]1Oc1cccc2c1CCCC2 | 37 | 28 | 25 |  |  |  | 
36 | CO[C@H]1O[C@H](COc2cccc(C(C)C)c2)[C@@H](O)[C@H](O)[C@H]1Oc1ccc(OC2CCCCC2)cc1 | 38 | 30 | 28 |  |  |  | 
